Results published in EP0850306B1, “LACCASES WITH AN ALTERED pH ACTIVITY PROFILE” (Novozymes Biotech, Inc., priority 1995, dated 1997).
Read-outs that look alike come from different tables or passages of the source.

Key:
[1] = test system: COc1cc(C=NN=Cc2cc(OC)c(O)c(OC)c2)cc(OC)c1O; assay: Laccase substrate oxidation kinetics (Km, kcat), MtL mutant "T"; type: biochemical, Myceliophthora thermophila; conditions: other: 8 mM MES-NaOH buffer, pH 5.3, spectroscopic
Description: (§1) The absorbance at 530 nm is measured over time in a UV-VIS spectrophotometer. One laccase unit (LACU) is defined as the amount of enzyme which oxidizes one µmole of substrate per minute at 30°C.
(§2) Km and kcat are obtained from the initial rate (v), enzyme concentration (E), and substrate concentration (S) in accordance to the equation v = kcat ES/( Km + S) by non-linear regression fitting using the Prizm program (GraphPad, San Diego, CA). […] The O2 concentration in air-saturated buffer solution is assumed as the same in plain water (0.28 mM).

[2] = target: T1, Rhizoctonia solani laccase isozyme 4 (RsL, rsl4), wild type (pJiWa59), SEQ ID NOS:24 and 25 (Thanatephorus cucumeris, UniProt Q02081); assay: Laccase substrate oxidation kinetics (Km, kcat), RsL wild type; type: biochemical; conditions: read-out: Km (ABTS); 8 mM MES-NaOH buffer, pH 5.3; spectroscopic
T1 construct: made in house; host or cells: Aspergillus oryzae HowB104
T1 sequence (Q02081 20-531): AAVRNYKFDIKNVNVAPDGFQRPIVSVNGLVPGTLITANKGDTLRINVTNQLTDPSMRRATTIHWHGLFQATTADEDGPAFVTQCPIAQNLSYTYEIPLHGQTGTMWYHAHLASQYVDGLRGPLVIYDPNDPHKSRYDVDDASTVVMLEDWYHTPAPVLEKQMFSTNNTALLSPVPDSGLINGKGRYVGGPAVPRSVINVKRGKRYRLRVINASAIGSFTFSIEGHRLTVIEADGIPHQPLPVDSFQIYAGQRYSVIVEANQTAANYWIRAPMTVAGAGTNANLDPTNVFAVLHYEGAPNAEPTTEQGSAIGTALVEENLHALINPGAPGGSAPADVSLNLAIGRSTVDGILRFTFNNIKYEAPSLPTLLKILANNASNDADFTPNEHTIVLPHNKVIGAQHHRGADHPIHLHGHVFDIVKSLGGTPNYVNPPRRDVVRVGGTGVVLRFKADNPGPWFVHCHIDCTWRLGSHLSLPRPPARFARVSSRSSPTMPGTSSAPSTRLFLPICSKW
Description: as §1, §2

[3] = target: T2, Myceliophthora thermophila laccase (MtL, lcc-1), wild type (pRaMB17), SEQ ID NOS:26 and 27 (Thermothelomyces thermophilus, UniProt G2QG31); assay: Laccase substrate oxidation kinetics (Km, kcat), MtL wild type; type: biochemical; conditions: 8 mM MES-NaOH buffer, pH 5.3, spectroscopic
T2 sequence (G2QG31 48-602): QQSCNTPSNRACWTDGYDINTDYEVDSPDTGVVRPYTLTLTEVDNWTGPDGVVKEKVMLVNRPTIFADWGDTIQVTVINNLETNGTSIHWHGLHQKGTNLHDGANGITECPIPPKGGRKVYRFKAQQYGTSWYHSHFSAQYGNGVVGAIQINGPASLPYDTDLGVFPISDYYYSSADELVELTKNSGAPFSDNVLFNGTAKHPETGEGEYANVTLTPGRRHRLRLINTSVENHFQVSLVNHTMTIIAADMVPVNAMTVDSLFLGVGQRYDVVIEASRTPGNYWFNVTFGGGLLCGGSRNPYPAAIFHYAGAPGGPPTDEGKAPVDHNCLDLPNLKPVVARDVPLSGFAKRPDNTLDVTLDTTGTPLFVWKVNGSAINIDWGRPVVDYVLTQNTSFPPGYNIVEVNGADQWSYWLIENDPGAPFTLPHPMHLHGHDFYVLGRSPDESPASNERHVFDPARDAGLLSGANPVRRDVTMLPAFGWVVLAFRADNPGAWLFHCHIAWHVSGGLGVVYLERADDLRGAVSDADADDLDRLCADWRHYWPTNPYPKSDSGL
Description: as §1, §2

[4] = target: T3, Myceliophthora thermophila laccase (MtL) mutant "T", V509L/S510E/G511A (pBANe22T) (Thermothelomyces thermophilus, UniProt G2QG31, G554A/S553E/V552L); assay: Laccase substrate oxidation kinetics (Km, kcat), MtL mutant "T"; type: biochemical; conditions: read-out: Km (ABTS); 8 mM MES-NaOH buffer, pH 5.3; spectroscopic
T3 sequence (G2QG31 48-602 V552L/S553E/G554A): T2 sequence (G2QG31 48-602)
Description: as §1, §2

“Myceliophthora thermophila laccase (MtL) mutant "T", V509L/S510E/G511A (pBANe22T) (Thermothelomyces thermophilus ATCC 42464; G554A/S553E/V552L)” was tested, and the Km [1] was 0.9 ± 0.2 µM and the kcat [1] was 6 ± 0.333 s⁻¹.

`CCn1c(=NN=c2sc3cc(S(=O)(=O)O)ccc3n2CC)sc2cc(S(=O)(=O)O)ccc21` [ABTS, 2,2'-azinobis(3-ethylbenzthiazoline-6-sulfonic acid)] showed a Km [2] of 52 ± 6 µM, a Km ([3]; read-out: Km (ABTS)) of 110 ± 20 µM and a Km [4] of 11 ± 2 µM.

With `COc1cc(C=NN=Cc2cc(OC)c(O)c(OC)c2)cc(OC)c1O` [SGZ, syringaldazine] the “kcat (SGZ)” value [3] was 75 ± 3.33 s⁻¹ and the Km ([3]; read-out: Km (SGZ)) was 1.4 ± 0.2 µM.
